Measurements from ChEMBL document CHEMBL5550154, “Novel biaryloxazolidinone derivatives with broad-spectrum antibacterial activity, favorable drug-like profiles and in vivo efficacy against linezolid-resistant Staphylococcusaureus” (Eur J Med Chem, 2024).
In brackets after ≈: the same amount, converted by molar mass.

Legend:
Assay type in all cases: functional
Conditions in all cases: time 16-20 hrs
Staphylococcus aureus [1] = experiment: Antibacterial activity against linezolid-resistant Staphylococcus aureus assessed as inhibition of bacterial growth incubated for 16 to 20 hrs by CLSI based broth liquid microdilution method
Staphylococcus aureus [2] = experiment: Antibacterial activity against methicillin-sensitive Staphylococcus aureus assessed as inhibition of bacterial growth incubated for 16 to 20 hrs by CLSI based broth liquid microdilution method
Enterococcus faecalis = experiment: Antibacterial activity against linezolid-resistant Enterococcus faecalis assessed as inhibition of bacterial growth incubated for 16 to 20 hrs by CLSI based broth liquid microdilution method
Staphylococcus aureus [3] = experiment: Antibacterial activity against methicillin-resistant Staphylococcus aureus assessed as inhibition of bacterial growth incubated for 16 to 20 hrs by CLSI based broth liquid microdilution method
Staphylococcus aureus [4] = experiment: Antibacterial activity against Staphylococcus aureus ATCC29213 assessed as inhibition of bacterial growth incubated for 16 to 20 hrs by CLSI based broth liquid microdilution method

SMILES	MIC (Staphylococcus aureus [1]) [µg/mL]	MIC (Staphylococcus aureus [2]) [µg/mL]	MIC (Enterococcus faecalis) [µg/mL]	MIC (Staphylococcus aureus [3]) [µg/mL]	MIC (Staphylococcus aureus [4]) [µg/mL]
NC(=S)N/N=C/c1ccc(-c2ccc(N3C[C@H](CO)OC3=O)cc2F)cn1	0.25 (≈ 0.642 µM)	0.125 (≈ 0.321 µM)	1 (≈ 2.57 µM)	0.125 (≈ 0.321 µM)	0.125 (≈ 0.321 µM)
CC(C)S(=O)(=O)NC[C@H]1CN(c2ccc(-c3ccc(/C=N/N4CCCCC4)nc3)c(F)c2)C(=O)O1	> 64	2 (≈ 3.97 µM)	> 64	4 (≈ 7.94 µM)	4 (≈ 7.94 µM)
CCS(=O)(=O)NC[C@H]1CN(c2ccc(-c3ccc(/C=N/N4CCCCC4)nc3)c(F)c2)C(=O)O1	> 16	1 (≈ 2.04 µM)	8 (≈ 16.3 µM)	1 (≈ 2.04 µM)	1 (≈ 2.04 µM)
COC[C@H]1CN(c2ccc(-c3ccc(/C=N/N4CCCCC4)nc3)c(F)c2)C(=O)O1	–	> 16	> 16	–	> 16
O=C1O[C@@H](CO)CN1c1ccc(-c2ccc(/C=N/Nc3ncccn3)nc2)c(F)c1	1 (≈ 2.45 µM)	0.5 (≈ 1.22 µM)	4 (≈ 9.79 µM)	1 (≈ 2.45 µM)	1 (≈ 2.45 µM)
CS(=O)(=O)N1CCN(/N=C/c2ccc(-c3ccc(N4C[C@H](CO)OC4=O)cc3F)cn2)CC1	0.125 (≈ 0.262 µM)	0.125 (≈ 0.262 µM)	1 (≈ 2.09 µM)	0.25 (≈ 0.524 µM)	0.25 (≈ 0.524 µM)
NC[C@H]1CN(c2ccc(-c3ccc(/C=N/N4CCCCC4)nc3)c(F)c2)C(=O)O1	32 (≈ 80.5 µM)	8 (≈ 20.1 µM)	32 (≈ 80.5 µM)	16 (≈ 40.3 µM)	8 (≈ 20.1 µM)
O=C1O[C@@H](CO)CN1c1ccc(-c2ccc(/C=N/Nc3ccc(Cl)cc3)nc2)c(F)c1	0.5 (≈ 1.13 µM)	0.25 (≈ 0.567 µM)	32 (≈ 72.6 µM)	0.5 (≈ 1.13 µM)	0.5 (≈ 1.13 µM)
CC(C)(C)C(=O)NC[C@H]1CN(c2ccc(-c3ccc(/C=N/N4CCCCC4)nc3)c(F)c2)C(=O)O1	> 16	4 (≈ 8.31 µM)	> 16	4 (≈ 8.31 µM)	4 (≈ 8.31 µM)
N=C(N)N/N=C/c1ccc(-c2ccc(N3C[C@H](CO)OC3=O)cc2F)cn1	1 (≈ 2.69 µM)	0.5 (≈ 1.34 µM)	2 (≈ 5.37 µM)	1 (≈ 2.69 µM)	1 (≈ 2.69 µM)
O=C1O[C@@H](CO)CN1c1ccc(-c2ccc(/C=N/N3CCSCC3)nc2)c(F)c1	2 (≈ 4.8 µM)	1 (≈ 2.4 µM)	8 (≈ 19.2 µM)	1 (≈ 2.4 µM)	2 (≈ 4.8 µM)
